Experimental data: US8440660B2 (Santen Pharmaceutical Co., Ltd., priority 2006, dated 2013)
Structures can show the parent of a compound that is named as a salt.

Target: T1, Glucocorticoid Receptor (GR) (Homo sapiens, UniProt P04150)
T1 construct: purchased Invitrogen P2816
T1 sequence (P04150 1-777): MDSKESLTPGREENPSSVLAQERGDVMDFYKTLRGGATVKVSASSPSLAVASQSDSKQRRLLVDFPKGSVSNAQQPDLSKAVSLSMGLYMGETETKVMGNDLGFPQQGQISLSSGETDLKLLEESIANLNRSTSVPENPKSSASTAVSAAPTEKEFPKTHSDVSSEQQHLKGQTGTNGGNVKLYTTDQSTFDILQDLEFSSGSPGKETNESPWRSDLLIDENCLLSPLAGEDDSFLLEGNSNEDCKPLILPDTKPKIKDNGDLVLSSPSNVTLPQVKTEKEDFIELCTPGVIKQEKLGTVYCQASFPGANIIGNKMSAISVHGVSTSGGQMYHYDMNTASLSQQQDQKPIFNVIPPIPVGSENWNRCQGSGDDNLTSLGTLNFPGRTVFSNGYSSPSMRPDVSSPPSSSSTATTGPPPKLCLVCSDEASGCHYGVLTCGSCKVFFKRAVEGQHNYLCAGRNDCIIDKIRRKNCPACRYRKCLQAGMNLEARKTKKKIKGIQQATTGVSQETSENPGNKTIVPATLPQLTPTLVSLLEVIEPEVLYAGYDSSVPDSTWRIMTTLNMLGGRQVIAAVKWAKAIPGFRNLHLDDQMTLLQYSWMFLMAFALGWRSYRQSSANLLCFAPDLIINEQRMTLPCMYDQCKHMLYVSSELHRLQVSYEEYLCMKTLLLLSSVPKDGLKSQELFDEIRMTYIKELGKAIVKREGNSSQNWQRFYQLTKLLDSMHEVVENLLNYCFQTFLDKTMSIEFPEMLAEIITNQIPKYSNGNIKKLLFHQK
Assay: GR receptor competitor assay by fluorescence polarization (Invitrogen GR competitor assay kit, cat No. P2816)
Conditions: 20 μM test compound solution, 10 μL per well plus 5 μL 4×GS1 and 5 μL 4×GR solution; recombinant human GR; 2 to 4 hours at room temperature; a ratio of 100% or more is indicated by 100%; read-out: GR Binding ratio (%)
Description: A detailed explanation of this matter will be described in the section of “Pharmacological Test” in Examples described below. In order to find the usefulness of the present compound as a pharmaceutical, a glucocorticoid receptor competitor assay was carried out by a fluorescence polarization method by using a glucocorticoid receptor competitor assay kit (manufactured by Invitrogen, cat No P2816) to study the glucocorticoid receptor binding activity of the present compound.
1. Evaluation Test for Binding Activity to Glucocorticoid Receptor (Hereinafter Referred to as “GR”)
In order to evaluate a binding activity to GR, a receptor competitor assay was carried out by a fluorescence polarization method. In the assay, a GR competitor assay kit (manufactured by Invitrogen, cat No. P2816) was used, and a procedure was carried out according to the protocol attached to the kit. Hereinafter, the specific method will be described.
(Preparation of Reagents)
GR screening buffer: A buffer containing 10 mM potassium phosphate (pH 7.4), 20 mM sodium molybdate (Na2MoO4), 0.1 mM ethylene diamine tetraacetic acid (EDTA), 5 mM dithiothreitol (DTT), 0.1 mM stabilizing peptide and 2% dimethylsulfoxide was prepared.
4×GS1 solution: Fluormone™ GS1, which is a fluorescent glucocorticoid ligand, was diluted with GR screening buffer, whereby a 4 nM solution was prepared.
4×GR solution: Recombinant human GR was diluted with GR screening buffer, whereby a 16 nM solution was prepared.
(Preparation of Test Compound Solution)
After a test compound was dissolved in dimethylsulfoxide, the resulting solution was diluted with GR screening buffer, whereby a 20 μM test compound solution was prepared.
(Test Method and Measurement Method)
1) The test compound solution was added in an amount of 10 μL into each well of a 384-well plate, and then, 4×GS1 solution and 4×GR solution were added in an amount of 5 μL into each well, respectively.
2) The plate was incubated in a dark place at room temperature for 2 to 4 hours.
3) By using a multimode plate reader, Analyst™ HT (manufactured by LJL Biosystems), fluorescence polarization of each well was measured. As the blank, a well containing GR screening buffer in place of the test compound and 4×GS1 solution was used.
4) The same procedure as that in the above 1) to 3) was carried out except that GR screening buffer was used in place of the test compound solution, and the obtained result was taken as the negative control.
5) The same procedure as that in the above 1) to 3) was carried out except that 2 mM dexamethasone was used in place of the test compound solution, and the obtained result was taken as the positive control.
(Calculation Equation of GR Binding Ratio)
A GR binding ratio (%) was calculated from the following equation. GR binding ratio (%)=100×[1−(fluorescence polarization of test compound solution−fluorescence polarization of positive control solution)/(fluorescence polarization of negative control solution−fluorescence polarization of positive control solution)] (Test Results and Discussion)

| SMILES | inhibition at 10 µM |
| --- | --- |
| CCC(=O)Oc1ccc(OC)c(-c2ccc3c(c2COc2cc(F)ccc2C)C(C)=CC(C)(C)N3)c1 [Compound 1-27, 5-(5-Fluoro-2-methylphenoxylmethyl)-6-(2-methoxy-5-propionyloxyphenyl)-2,2,4-trimethyl-1,2-dihydroquinoline] | 84% |
| COc1cc(OC(=O)c2ccccn2)ccc1-c1ccc2c(c1COc1cc(F)ccc1C)C(C)=CC(C)(C)N2 [Compound 1-35, 5-(5-Fluoro-2-methylphenoxymethyl)-6-[2-methoxy-4-(pyridin-2-ylcarbonyloxy)phenyl]-2,2,4-trimethyl-1,2-dihydroquinoline] | 100% |
| COc1cc(OC(=O)CNC(=O)OC(C)(C)C)ccc1-c1ccc2c(c1COc1cc(F)ccc1C)C(C)=CC(C)(C)N2 [Compound 1-2, 6-(4-t-Butoxycarbonylaminoacetoxy-2-methoxyphenyl)-5-(5-fluoro-2-methylphenoxymethyl)-2,2,4-trimethyl-1,2-dihydroquinoline] | 100% |
| COc1cc(OC(=O)c2cscn2)ccc1-c1ccc2c(c1COc1cc(F)ccc1C)C(C)=CC(C)(C)N2 [Compound 1-54, 5-(5-Fluoro-2-methylphenoxymethyl)-6-[2-methoxy-4-(thiazol-4-ylcarbonyloxy)phenyl]-2,2,4-trimethyl-1,2-dihydroquinoline] | 100% |
| COC(=O)c1cccc(C(=O)Oc2ccc(-c3ccc4c(c3COc3cc(F)ccc3C)C(C)=CC(C)(C)N4)c(OC)c2)c1 [Compound 1-68, 5-(5-Fluoro-2-methylphenoxymethyl)-6-[2-methoxy-4-(3-methoxycarbonylbenzoyloxy)phenyl]-2,2,4-trimethyl-1,2-dihydroquinoline] | 100% |
| COc1cc(OC(=O)c2ccccc2OC(C)=O)ccc1-c1ccc2c(c1COc1cc(F)ccc1C)C(C)=CC(C)(C)N2 [Compound 1-50, 6-[4-(2-Acetoxybenzoyloxy)-2-methoxyphenyl]-5-(5-fluoro-2-methylphenoxymethyl)-2,2,4-trimethyl-1,2-dihydroquinoline] | 97% |
| COc1cc(OC(=O)c2cn(C(=O)OC(C)(C)C)cn2)ccc1-c1ccc2c(c1COc1cc(F)ccc1C)C(C)=CC(C)(C)N2 [Compound 1-53, 6-[4-(1-t-Butoxycarbonylimidazol-4-ylcarbonyloxy)-2-methoxyphenyl]-5-(5-fluoro-2-methylphenoxymethyl)-2,2,4-trimethyl-1,2-dihydroquinoline] | 100% |
| COc1ccc(C(=O)Oc2ccc(-c3ccc4c(c3COc3cc(F)ccc3C)C(C)=CC(C)(C)N4)c(OC)c2)cc1 [Compound 1-6] | 100% |
| COc1cc(OC(=O)C(C)C)ccc1-c1ccc2c(c1COc1cc(F)ccc1C)C(C)=CC(C)(C)N2 [Compound 1-20, 5-(5-Fluoro-2-methylphenoxymethyl)-6-(4-isobutyryloxy-2-methoxyphenyl)-2,2,4-trimethyl-1,2-dihydroquinoline] | 100% |
| COC(=O)c1ccc(NC(=O)Oc2ccc(-c3ccc4c(c3COc3cc(F)ccc3C)C(C)=CC(C)(C)N4)c(OC)c2)cc1 [Compound 6-14, 5-(5-Fluoro-2-methylphenoxymethyl)-6-[2-methoxy-4-(4-methoxycarbonylphenylaminocarbonyloxy)phenyl]-2,2,4-trimethyl-1,2-dihydroquinoline] | 88% |
| COc1cc(OC(=O)CN)ccc1-c1ccc2c(c1COc1cc(F)ccc1C)C(C)=CC(C)(C)N2 [Compound 3-1, 6-(4-Aminoacetoxy-2-methoxyphenyl)-5-(5-fluoro-2-methylphenoxymethyl)-2,2,4-trimethyl-1,2-dihydroquinoline monohydrochloride] | 100% |
| CCC(=O)Oc1ccc(-c2ccc3c(c2COc2cc(F)ccc2C)C(C)=CC(C)(C)N3)c(OC)c1 [Compound 1-16, 5-(5-Fluoro-2-methylphenoxymethyl)-6-(2-methoxy-4-propionyloxyphenyl)-2,2,4-trimethyl-1,2-dihydroquinoline] | 100% |
| COc1cc(OC(=O)C2CCCCC2)ccc1-c1ccc2c(c1COc1cc(F)ccc1C)C(C)=CC(C)(C)N2 [Compound 1-12, 6-(4-Cyclohexylcarbonyloxy-2-methoxyphenyl)-5-(5-fluoro-2-methylphenoxymethyl)-2,2,4-trimethyl-1,2-dihydroquinoline] | 100% |
| COc1cc(OC(=O)c2ccnc(Cl)c2)ccc1-c1ccc2c(c1COc1cc(F)ccc1C)C(C)=CC(C)(C)N2 [Compound 1-90, 6-[4-(2-Chloropyridin-4-ylcarbonyloxy)-2-methoxyphenyl]-5-(5-fluoro-2-methylphenoxymethyl)-2,2,4-trimethyl-1,2-dihydroquinoline] | 95% |

Results, then the molecule that gave them:

| inhibition at 10 µM | SMILES |
| --- | --- |
| 100% | CCCS(=O)(=O)Oc1ccc(-c2ccc3c(c2COc2cc([N+](=O)[O-])ccc2C)C(C)=CC(C)(C)N3)c(OC)c1 [Compound 4-25, 6-(2-Methoxy-4-propylsulfonyloxyphenyl)-5-(2-methyl-5-nitrophenoxymethyl)-2,2,4-trimethyl-1,2-dihydroquinoline] |
| 100% | COc1cc(OC(=O)N2CCOCC2)ccc1-c1ccc2c(c1COc1cc([N+](=O)[O-])ccc1C)C(C)=CC(C)(C)N2 [Compound 6-30, 6-[2-Methoxy-4-(morpholin-4-ylcarbonyloxy)phenyl]-5-(2-methyl-5-nitrophenoxymethyl)-2,2,4-trimethyl-1,2-dihydroquinoline] |
| 100% | CCCS(=O)(=O)Oc1ccc(-c2ccc3c(c2COc2cc(F)ccc2C)C(C)=CC(C)(C)N3)c(OC)c1 [Compound 4-11, 5-(5-Fluoro-2-methylphenoxymethyl)-6-(2-methoxy-4-propylsulfonyloxyphenyl)-2,2,4-trimethyl-1,2-dihydroquinoline] |
| 92% | COc1ccccc1C(=O)Oc1ccc(-c2ccc3c(c2COc2cc([N+](=O)[O-])ccc2C)C(C)=CC(C)(C)N3)c(OC)c1 [Compound 1-93, 6-[2-Methoxy-4-(2-methoxybenzoyloxy)phenyl]-5-(2-methyl-5-nitrophenoxymethyl)-2,2,4-trimethyl-1,2-dihydroquinoline] |
| 100% | COc1cc(OC(=O)c2cccnc2C)ccc1-c1ccc2c(c1COc1cc([N+](=O)[O-])ccc1C)C(C)=CC(C)(C)N2 [Compound 1-122, 6-[2-Methoxy-4-(2-methylpyridin-3-ylcarbonyloxy)phenyl]-5-(2-methyl-5-nitrophenoxymethyl)-2,2,4-trimethyl-1,2-dihydroquinoline] |
| 100% | COc1cc(OC(=O)c2cccnc2OC)ccc1-c1ccc2c(c1COc1cc(F)ccc1C)C(C)=CC(C)(C)N2 [Compound 1-125, 5-(5-Fluoro-2-methylphenoxymethyl)-6-[2-methoxy-4-(2-methoxypyridin-3-ylcarbonyloxy)phenyl]-2,2,4-trimethyl-1,2-dihydroquinoline] |
| 96% | COc1cc(OC(=O)c2ccncc2F)ccc1-c1ccc2c(c1COc1cc(F)ccc1C)C(C)=CC(C)(C)N2 [Compound 1-91, 5-(5-Fluoro-2-methylphenoxymethyl)-6-[4-(3-fluoropyridin-4-ylcarbonyloxy)-2-methoxyphenyl]-2,2,4-trimethyl-1,2-dihydroquinoline] |
